{"source": "BindingDB's records for doi:10.1074/jbc.M113.474114", "about": "(Glaxosmithkline, 2013)", "data": [{"target": "T1, Tyrosine-protein kinase ITK/TSK [357-620,Y512E] (Human, UniProt Q08881, Y512E)", "T1 construct": "357-620", "T1 sequence (Q08881 357-620 Y512E)": "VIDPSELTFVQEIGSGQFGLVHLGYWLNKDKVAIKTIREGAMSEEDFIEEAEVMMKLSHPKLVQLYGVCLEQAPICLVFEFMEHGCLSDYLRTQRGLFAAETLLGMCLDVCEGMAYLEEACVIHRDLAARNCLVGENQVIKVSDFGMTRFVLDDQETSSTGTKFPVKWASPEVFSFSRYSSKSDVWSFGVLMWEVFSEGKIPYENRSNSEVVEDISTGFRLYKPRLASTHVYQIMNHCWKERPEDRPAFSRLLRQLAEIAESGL", "test": "LanthaScreen Kinase Binding Assay", "excerpt": "This assay is based on the binding and displacement of Alexa-fluor 647-labeled ATP-competitive kinase inhibitor tracer 236. Binding of the tracer is detected using a europium-labeled anti-tag antibody that binds to the purified recombinant tagged Itk protein. Binding of the tracer 236 is reversible and rapid, and simultaneous binding of the tracer and antibody results in fluorescence resonance energy transfer (FRET). Displacement of the tracer upon inhibitor binding results in a decrease of FRET. The assay can be read continuously, enabling rates of binding (and displacement) to be monitored.", "units": {"IC50": "nM"}, "values": [{"compound": "C=CC(=O)N1CC[C@H](Nc2cc(CN(C)C)cc(Nc3nc4cccnc4s3)n2)C1", "note": "[(S)-1-(3-((4-((Dimethylamino)methyl)-6-(thiazolo[5,4-b]pyridin-2-ylamino)pyridin-2-yl)amino)pyrrolidin-1-yl)prop-2-en-1-one (11)]", "IC50": 32}, {"compound": "C=CC(=O)N1CCC(Nc2nc(CN3CCOCC3)cc(Nc3nc4cccnc4s3)n2)CC1", "note": "[N2-(1-Acryloyl-4-piperidinyl)-6-(4-morpholinylmethyl)-N4-[1,3]thiazolo[5,4-b]pyridin-2-yl-2,4-pyrimidinediamine (3)]", "IC50": 320}, {"compound": "C=CC(=O)N1CC[C@H](Nc2cc(CN3C[C@@H](C)O[C@@H](C)C3)cc(Nc3nc4cccnc4s3)n2)C1", "note": "[N-[(3S)-1-Acryloyl-3-pyrrolidinyl]-4-{[cis-2,6-dimethyl-4-morpholinyl]methyl}-N'-[1,3]thiazolo[5,4-b]pyridin-2-yl-2,6-pyridinediamine (9)]", "IC50": 5}, {"compound": "C/C=C/C(=O)N1CC[C@H](Nc2cc(CN3C[C@@H](C)O[C@@H](C)C3)cc(Nc3nc4cccnc4s3)n2)C1", "note": "[N-{(3S)-1-[(2E)-2-Butenoyl]-3-pyrrolidinyl}-4-{[cis-2,6-dimethyl-4-morpholinyl]methyl}-N'-[1,3]thiazolo[5,4-b]pyridin-2-yl-2,6-pyridinediamine (16)]", "IC50": 40}, {"compound": "C=CC(=O)N1CC[C@H](Nc2cc(CN[C@H](C)C(C)(C)C)cc(Nc3nc4cccnc4s3)n2)C1", "note": "[1-((S)-3-((4-((((R)-3,3-Dimethylbutan-2-yl)amino)methyl)-6-(thiazolo[5,4-b]pyridin-2-ylamino)pyridin-2-yl)amino)pyrrolidin-1-yl)prop-2-en-1-one (13)]", "IC50": 7.9}, {"compound": "C=CC(=O)NCCNc1nc(CN2CCOCC2)cc(Nc2nc3cccnc3s2)n1", "note": "[N-(2-{[4-(4-Morpholinylmethyl)-6-([1,3]thiazolo[5,4-b]pyridin-2-ylamino)-2-pyrimidinyl]amino}ethyl)-2-propenamide (2)]", "IC50": 1300}, {"compound": "O[C@H]1CC[C@H](Nc2nc(CN3CCOCC3)cc(Nc3nc4cccnc4s3)n2)CC1", "note": "[(trans)-4-((4-(Morpholinomethyl)-6-(thiazolo[5,4-b]pyridin-2-ylamino)pyrimidin-2-yl)amino)cyclohexanol (1)]", "IC50": 100}, {"compound": "C=CC(=O)N1CC[C@H](Nc2cc(CN[C@@H](C)C(C)(C)C)cc(Nc3nc4cccnc4s3)n2)C1", "IC50": 5}, {"compound": "C=CC(=O)N1CC[C@H](Nc2nc(CN3CCOCC3)cc(Nc3nc4cccnc4s3)n2)C1", "note": "[N2-[(3S)-1-Acryloyl-3-pyrrolidinyl]-6-(4-morpholinylmethyl)-N4-[1,3]thiazolo[5,4-b]pyridin-2-yl-2,4-pyrimidinediamine (7)]", "IC50": 500}, {"compound": "C=CC(=O)N[C@H]1CC[C@H](Nc2nc(CN3CCOCC3)cc(Nc3nc4cccnc4s3)n2)CC1", "note": "[N-(trans-4-{[4-(4-Morpholinylmethyl)-6-([1,3]thiazolo[5,4-b]pyridin-2-ylamino)-2-pyrimidinyl]amino}cyclohexyl)-2-propenamide (5)]", "IC50": 2000}, {"compound": "C=CC(=O)N1CC[C@H](Nc2cc(CN3CCCCC3)cc(Nc3nc4cccnc4s3)n2)C1", "note": "[(S)-1-(3-((4-(Piperidin-1-ylmethyl)-6-(thiazolo[5,4-b]pyridin-2-ylamino)pyridin-2-yl)amino)pyrrolidin-1-yl)prop-2-en-1-one (10)]", "IC50": 6.3}, {"compound": "C=CC(=O)N[C@H]1CCCC[C@H]1Nc1nc(CN2CCOCC2)cc(Nc2nc3cccnc3s2)n1", "note": "(relative stereo) [N-(cis-2-{[4-(4-Morpholinylmethyl)-6-([1,3]thiazolo[5,4-b]pyridin-2-ylamino)-2-pyrimidinyl]amino}cyclohexyl)-2-propenamide (4)]", "IC50": 320}, {"compound": "C=CC(=O)N[C@H]1CCC[C@@H](Nc2nc(CN3CCOCC3)cc(Nc3nc4cccnc4s3)n2)C1", "note": "(relative stereo) [N-(cis-3-{[4-(4-Morpholinylmethyl)-6-([1,3]thiazolo[5,4-b]pyridin-2-ylamino)-2-pyrimidinyl]amino}cyclohexyl)-2-propenamide (6)]", "IC50": 250}, {"compound": "C=CC(=O)N1CC[C@@H](Nc2nc(CN3CCOCC3)cc(Nc3nc4cccnc4s3)n2)C1", "note": "[N2-[(3R)-1-Acryloyl-3-pyrrolidinyl]-6-(4-morpholinylmethyl)-N4-[1,3]thiazolo[5,4-b]pyridin-2-yl-2,4-pyrimidinediamine (14)]", "IC50": 20000}]}]}
